Experimental data taken from ChEMBL document CHEMBL1201862, “PubChem BioAssay data set” (2004).
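Method: 48-hour compound exposure of cells in 96-well plates, five concentrations, linear interpolation of endpoints. Here, GI50 denotes the concentration required for 50% inhibition of growth.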 Active and inactive are the calls of the source. Rule as the data show it: active = GI50 up to about 1.1 µM and inactive = higher.

Tests used:
Test in all cases: NCI anticancer screen, dose series, 48 h
UO-31 = tested on: UO-31
786-0 = tested on: 786-0
NCI-H23 = tested on: NCI-H23
SNB-75 = tested on: SNB-75
HOP-92 = tested on: HOP-92
NCI-H460 = tested on: NCI-H460
RXF 393 = tested on: RXF 393
LXFL 529 = tested on: LXFL 529
SF-295 = tested on: SF-295
U-251 = tested on: U-251
HCT-15 = tested on: HCT-15
UACC-257 = tested on: UACC-257
OVCAR-4 = tested on: OVCAR-4
NCI-H522 = tested on: NCI-H522
KM12 = tested on: KM12
TK-10 = tested on: TK-10
SK-MEL-5 = tested on: SK-MEL-5
M14 = tested on: M14
T47D = tested on: T47D
Hs-578T = tested on: Hs-578T

SMILES | GI50 (UO-31) | GI50 (786-0) | GI50 (NCI-H23) | GI50 (SNB-75) | GI50 (HOP-92) | GI50 (NCI-H460) | GI50 (RXF 393) | GI50 (LXFL 529) | GI50 (SF-295) | GI50 (U-251) | GI50 (HCT-15) | GI50 (UACC-257) | GI50 (OVCAR-4) | GI50 (NCI-H522) | GI50 (KM12) | GI50 (TK-10) | GI50 (SK-MEL-5) | GI50 (M14) | GI50 (T47D) | GI50 (Hs-578T)
CC1OC(CC2C=CCc3c(O)c4c(c(O)c32)C(=O)c2ccccc2C4=O)CC(NC(=O)C(F)(F)F)C1O (stereo unspecified) | 20 µM (inactive) | 11.1 µM (inactive) | 7.59 µM (inactive) | 2.27 µM (inactive) | 2.92 µM (inactive) | 5.25 µM (inactive) | 2.52 µM (inactive) | 6.87 µM (inactive) | 5.74 µM (inactive) | 3.94 µM (inactive) | 11.9 µM | 7.93 µM (inactive) | 2.79 µM (inactive) | 18.1 µM (inactive) | 15.9 µM (inactive) | 2.29 µM (inactive) | 11.2 µM (inactive) | 4.29 µM (inactive) | – | –
CCC12C=CCN3CCC4(C(=C(C(=O)OC)[C@@H]1O)Nc1ccccc14)C32 (stereo partly specified) | 2.4 µM (inactive) | 1.64 µM (inactive) | 1.85 µM (inactive) | 1.9 µM (inactive) | 1.6 µM (inactive) | 1.87 µM (inactive) | 1.36 µM (inactive) | 1.66 µM (inactive) | 2.05 µM (inactive) | 2.24 µM (inactive) | 1.57 µM | 1.1 µM (active) | 2.12 µM (inactive) | 1.61 µM (inactive) | 1.7 µM (inactive) | 2.24 µM (inactive) | 1.79 µM (inactive) | 2.2 µM (inactive) | – | –
CC(O)C(NC(=O)c1ccccc1)C(=O)N(Cc1ccccc1)Cc1ccccc1 (stereo unspecified) | > 100 µM (inactive) | > 100 µM (inactive) | > 100 µM (inactive) | 47.5 µM (inactive) | 75.9 µM (inactive) | > 100 µM (inactive) | – | > 100 µM (inactive) | 94.4 µM (inactive) | > 100 µM (inactive) | > 100 µM | 80.4 µM (inactive) | > 100 µM (inactive) | 7.03 µM (inactive) | > 100 µM (inactive) | > 100 µM (inactive) | 60 µM (inactive) | > 100 µM (inactive) | – | –
Cc1cc2occ(-c3ccc(Cl)cc3)c2c(=O)o1 | 58.1 µM (inactive) | > 100 µM (inactive) | > 100 µM (inactive) | 55.7 µM (inactive) | > 100 µM (inactive) | > 100 µM (inactive) | > 100 µM (inactive) | > 100 µM (inactive) | > 100 µM (inactive) | > 100 µM (inactive) | > 100 µM | > 100 µM (inactive) | > 100 µM (inactive) | 66.5 µM (inactive) | > 100 µM (inactive) | > 100 µM (inactive) | > 100 µM (inactive) | 88.1 µM (inactive) | – | –
COc1ccc(OC)c(/C=N/N=C(\N)NO)c1 | 14.2 µM (inactive) | 21.4 µM (inactive) | 27 µM (inactive) | 72.4 µM (inactive) | 23.3 µM (inactive) | 15 µM (inactive) | 39.5 µM (inactive) | 4.57 µM (inactive) | 21.9 µM (inactive) | 34.4 µM (inactive) | 5.98 µM | 30.5 µM (inactive) | 7.28 µM (inactive) | 14.3 µM (inactive) | 22.4 µM (inactive) | 19.4 µM (inactive) | – | 20.1 µM (inactive) | – | –
Cc1c(-c2coc(-c3ccc(Cl)cc3)n2)c(=O)n(-c2ccccc2)n1C | > 100 µM (inactive) | > 100 µM (inactive) | > 100 µM (inactive) | > 100 µM (inactive) | > 100 µM (inactive) | > 100 µM (inactive) | – | > 100 µM (inactive) | > 100 µM (inactive) | > 100 µM (inactive) | > 100 µM | > 100 µM (inactive) | > 100 µM (inactive) | > 100 µM (inactive) | > 100 µM (inactive) | > 100 µM (inactive) | > 100 µM (inactive) | > 100 µM (inactive) | – | –
Cc1ccc(Sc2ccccc2N)cc1 | 12.8 µM (inactive) | 29.2 µM (inactive) | 26.7 µM (inactive) | 44.8 µM (inactive) | 22.7 µM (inactive) | 30.4 µM (inactive) | 18.7 µM (inactive) | 16.8 µM (inactive) | 78.2 µM (inactive) | 67.3 µM (inactive) | 37.8 µM | 33.4 µM (inactive) | 46.9 µM (inactive) | 14.8 µM (inactive) | 25.5 µM (inactive) | 70.5 µM (inactive) | 20.7 µM (inactive) | 32.7 µM (inactive) | – | –
CCCCc1c2c(nc3c1CCc1cc(C=O)c(N)nc1-3)/C(=C/c1ccccc1)CCC2 | > 100 µM (inactive) | > 100 µM (inactive) | > 100 µM (inactive) | > 100 µM (inactive) | > 100 µM (inactive) | 40.8 µM (inactive) | > 100 µM (inactive) | > 100 µM (inactive) | > 100 µM (inactive) | > 100 µM (inactive) | 86.3 µM | > 100 µM (inactive) | > 100 µM (inactive) | > 100 µM (inactive) | > 100 µM (inactive) | > 100 µM (inactive) | > 100 µM (inactive) | > 100 µM (inactive) | – | –
O=C(Nc1nc2ncn(CCI)c2c(=O)[nH]1)c1ccccc1 | > 90.4 µM (inactive) | 46.1 µM (inactive) | > 100 µM (inactive) | 20.5 µM (inactive) | 27.9 µM (inactive) | > 100 µM (inactive) | 26.9 µM (inactive) | > 100 µM (inactive) | 34 µM (inactive) | 28.3 µM (inactive) | 98.6 µM | > 100 µM (inactive) | > 100 µM (inactive) | 28.3 µM (inactive) | > 100 µM (inactive) | 31.3 µM (inactive) | > 100 µM (inactive) | > 100 µM (inactive) | – | –
C[S+]([O-])c1cc(=O)c2ccccc2s1 (stereo unspecified) | 11.9 µM (inactive) | 2.82 µM (inactive) | 6.19 µM (inactive) | 11.4 µM (inactive) | 2.94 µM (inactive) | 14.9 µM (inactive) | 2.94 µM (inactive) | 1.54 µM (inactive) | 17 µM (inactive) | 12.8 µM (inactive) | 3.03 µM | 3.4 µM (inactive) | 3.03 µM (inactive) | 1.13 µM (inactive) | 12.6 µM (inactive) | 6.68 µM (inactive) | 10.6 µM (inactive) | 1.67 µM (inactive) | 2.52 µM (inactive) | 25.4 µM (inactive)
N#CC(C(=O)C(=O)Nc1c(Cl)cccc1Cl)c1ccccc1 (stereo unspecified) | > 10 µM (inactive) | > 10 µM (inactive) | > 10 µM (inactive) | > 10 µM (inactive) | > 10 µM (inactive) | > 10 µM (inactive) | > 10 µM (inactive) | > 10 µM (inactive) | 0.302 µM (active) | > 10 µM (inactive) | > 10 µM | > 10 µM (inactive) | > 10 µM (inactive) | > 10 µM (inactive) | > 10 µM (inactive) | > 10 µM (inactive) | > 10 µM (inactive) | > 10 µM (inactive) | – | –
Cc1ccccc1NC(=O)C(=O)C(C(=O)c1ccccc1F)C1OC(=O)c2ccccc21 (stereo unspecified) | 15.8 µM (inactive) | 16.3 µM (inactive) | 10.3 µM (inactive) | 8.39 µM (inactive) | 33.3 µM (inactive) | 32.9 µM (inactive) | 8.53 µM (inactive) | 13.4 µM (inactive) | – | 7.53 µM (inactive) | 24.5 µM | 21.1 µM (inactive) | 18.4 µM (inactive) | 5.68 µM (inactive) | 23 µM (inactive) | 43 µM (inactive) | 22.4 µM (inactive) | 16.6 µM (inactive) | – | –
C[C@H]1C=C2C(=O)O[C@H]3CC[C@@H](C1)[C@@]23O | 18.2 µM (inactive) | 3.28 µM (inactive) | 2.8 µM (inactive) | 5.87 µM (inactive) | 5.25 µM (inactive) | 6 µM (inactive) | 2.79 µM (inactive) | 2.93 µM (inactive) | 4.4 µM (inactive) | 6.44 µM (inactive) | 3.65 µM | 10.3 µM (inactive) | 10.3 µM (inactive) | 2.51 µM (inactive) | 2.92 µM (inactive) | 4.68 µM (inactive) | 4.13 µM (inactive) | 3.83 µM (inactive) | – | –
CC(=O)OCSc1ncnc2c1ncn2CN1CCOCC1 | 8.38 µM (inactive) | 7.91 µM (inactive) | 11.9 µM (inactive) | 13.2 µM (inactive) | 1.08 µM (active) | 18.2 µM (inactive) | 14.8 µM (inactive) | > 100 µM (inactive) | 49.9 µM (inactive) | 47.8 µM (inactive) | 21.1 µM | 53.5 µM (inactive) | 23 µM (inactive) | 3.27 µM (inactive) | 51.1 µM (inactive) | 7.05 µM (inactive) | 49.4 µM (inactive) | 2.25 µM (inactive) | – | –
CC(=O)OC12C(C)=C(C)C(=O)N1c1ccccc1N2C(C)=O (stereo unspecified) | > 100 µM (inactive) | > 100 µM (inactive) | > 100 µM (inactive) | > 100 µM (inactive) | > 100 µM (inactive) | > 100 µM (inactive) | > 100 µM (inactive) | > 100 µM (inactive) | > 100 µM (inactive) | > 100 µM (inactive) | > 100 µM | > 100 µM (inactive) | > 100 µM (inactive) | > 100 µM (inactive) | > 100 µM (inactive) | > 100 µM (inactive) | > 100 µM (inactive) | > 100 µM (inactive) | – | –
O=C1c2cccc3cc([N+](=O)[O-])cc(c23)C(=O)N1CCNCCNCCNCCN1C(=O)c2cccc3cc([N+](=O)[O-])cc(c23)C1=O | 0.033 µM (active) | < 0.001 µM (active) | 0.00193 µM (active) | 0.0108 µM (active) | 0.00343 µM (active) | < 0.001 µM (active) | 0.122 µM (active) | 0.01 µM (active) | < 0.001 µM (active) | 0.00198 µM (active) | 0.01 µM | 0.0311 µM (active) | 0.0117 µM (active) | 0.116 µM (active) | < 0.001 µM (active) | 0.092 µM (active) | 0.152 µM (active) | 0.0188 µM (active) | – | –
